Patent publication US5552267A, “Solution for prolonged organ preservation” (priority 1994, dated 1996)
“Also recorded” adds a separate entry of the source. Where a SMILES comes first, the peptide text is derived from it.

Experiments:
[1] = system: cGMP-dependent protein kinase; details: relative to cGMP; cited from earlier work
[2] = system: heart; assay: heterotopic rat cardiac transplant, cAMP series, graft survival/score; assay type: in vivo, rat (male Sprague-Dawley); details: 12 h in LR
From the text: Preservation solutions included lactated Ringer's (LR) solution Baxter, Edison, N.J.), or LR supplemented with rolipram ZK 62 711, Schering AG, Berlin, Germany), indolidan LY195115, Lilly Research Laboratories, Indianapolis, Ind.), sodium butyrate, 8-bromoadenosine, 8-bromoadenosine 3',5'monophosphate (8-Br-cAMP; Sigma Chemical Co., St. Louis, Mo.), the Rp -isomer of adenosine 3',5'monophosphorothioate (Rp -cAMPS; Biolog, La Jolla, Calif.), the Sp isomer of adenosine 3',5'monophosphorothioate (Sp -cAMPS; Biolog), and N^6,O^2' -dibutyryl adenosine 3',5'monophosphate sodium (db-cAMP; Aldrich, Milwaukee, Wis.). Components were combined within 4 hrs of donor cardiectomy, and preservation solutions were kept at 4° C. University of Wisconsin solution (UW)(2-4 was purchased from Dupont (Wilmington, Del.).
Donor Cardiectomy. Male Sprague-Dawley rats (350-450 grams, Camm Research, Wayne, N.J.) were anesthetized, heparinized (1000 units of heparin given intravenously), and the donor heart removed in the following manner; a midline incision was performed, followed by rapid cardioplegic arrest with 5 ml of cold (4° C.), high potassium solution (NACl, 0.9%, and KCl, 40 mEq/L). The heart was maintained at 4° C. throughout the harvest procedure by the application of a cold saline soaked gauze over its surface. […] The aortic root was flushed with ≈15 ml of the cold preservation solution until the coronary arteries became visibly clear, and the heart remained in the cold storage solution for the indicated duration until the time of transplantation.
Heterotopic Transplant. The same breed/size of rat was used, and similarly anesthetized, but not given heparin. A midline abdominal incision was made, and the infrarenal aorta and vena cava were occluded with a side-biting vascular clamp and longitudinal incisions were made in each vessel. The donor heart was removed from the preservation solution and kept moist with saline-soaked gauze. […] Blood flow was restored to the graft (by removal of the clamp) exactly one hour after removal from the cold preservation solution. […] Ten minutes after removal of the cross-clamp, an electrocardiogram was taken (Grass Polygraph, Quincy, Mass.) and the heart was judged by the same blinded investigators throughout based on the presence/absence of regular contractions and a transplant score (0-5, worst-best, respectively) employing the following criteria: contraction (poor=0, average=1, vigorous=2), tissue turgor (hard=0, average=1, soft=2), and color (dusky=0, pink=1). […] The heterotopic cardiac transplant experiments performed in these studies were done by a single surgeon after establishment of this model and acquisition of surgical expertise, with control and experimental groups interspersed throughout the study period to prevent a time-dependent bias pertaining to surgical skills.
Statistics. Graft survival data and transplant scores were analyzed using the Kruskal-Wallis non-parametric analysis of variance (38). Comparisons of individual treatments were performed using the procedure described by Dunn (39). In addition, the effect of db-cAMP on the time-course of graft failure was quantified by multivariate logistic regression. Graft myeloperoxidase data, microsphere data, and cAMP/adenylate cyclase/phosphodiesterase data from experiments with cultured vascular smooth muscle cells were analyzed by t-tests when 2 treatments were performed or by analysis of variance when 3 or more treatments were performed. In the latter case, post-hoc comparison of treatment groups were tested using Tukey's procedure. Values are expressed as means ±SEM, with a p <0.05 considered statistically significant.

[3] = system: lung; assay: orthotopic rat left lung transplantation, cGMP series (hemodynamics, oxygenation, recipient survival); assay type: in vivo, rat (male Lewis); details: 6 h in EC
Method: Orthotopic rat left lung transplantation was accomplished using inbred male Lewis rats (250-300 gms), using a modification of a previously described technique^29. The donor rat was anesthetized and heparinized (500 U intravenously), and endotracheal intubation was performed by inserting a 16 gauge angiocatheter into the trachea using blunt cervical dissection, after which the rat was ventilated with room air at a constant rate (100 breaths/minute) and tidal volume (2.5 ml), using a Harvard rodent ventilator. […] The pulmonary artery (PA) and pulmonary vein (PV) were divided, the bronchus ligated with the lung partially inflated and then divided, and the lung removed. The vascular stumps were each pulled through a small plastic cylinder, and a lip of vessel was turned back around the edge and secured in place with a suture to form a "cuff." A small plastic cylinder was inserted into the bronchial stump and secured, and the lung was then wrapped in gauze and submerged in cold preservation solution for the desired interval.
The recipient rat (gender/size/strain-matched) was similarly anesthetized and intubated (ventilated with 100% oxygen), but not heparinized. A left thoracotomy was performed, the hilum was dissected, and the left bronchus, PA, and PV were isolated, cross-clamped, divided and the native lung was removed from the field. The PA and PV stumps were rinsed with heparinized saline to remove any clot. The donor lung was brought onto the surgical field, and the cylinder (bronchus) and cuffs (PA and PV) were connected rapidly to their respective structures with a simple staying suture. This cuff technique permitted rapid approximation of donor and recipient tissues with no contact of a foreign substance with the luminal vascular surface. The hilar cross-clamp was released, re-establishing blood flow, and the bronchus tie was removed, enabling gas exchange. A snare was then passed around the right PA, and a Millar catheter (2F; Millar Instruments,Houston, Tex.) was introduced through a small hole (surrounded by a pursestring) into the main PA; similarly, a Millar catheter was introduced into the left atrium (LA). A flow probe (Transonics, Ithaca, N.Y.) was then placed around the main PA. Arterial blood gas sampling performed via the left femoral artery.
Online hemodynamic monitoring was accomplished using MacLab and a Macintosh IIci computer. The hemodynamic parameters that were measured included PA pressure (mm Hg), blood flow (ml/min), LA pressure (mm Hg), as well as arterial oxygen tension (mm Hg) during inspiration of 100% oxygen; pO2 was analyzed with a model ABL-2 dissolved gas analyzer (Radiometer, Copenhagen, Denmark). Pulmonary vascular resistances (PVRs) were calculated as [mean PA pressure-LA pressure]/PA flow. The native lung supported the recipient during the period of warm ischemia (the period during which the donor lung was removed from cold preservation until the time of reperfusion, <10 min. in all instances), but immediately following rapid hemodynamic instrumentation and acquisition of baseline measurements, the native (right) PA was then ligated, and serial measurements (representative solely of the transplanted lung) were taken every five minutes for 30 minutes. Because the native lung was effectively removed from the circulation by ligation of the right PA, these measurements represent function of the transplanted lung. Recipient death was identified by the cessation of cardiac mechanical activity observed through the thoracotomy.
Preservation solutions were freshly made and coded by a technician not otherwise involved in the experiments, according to a general plan which included both control and experimental groups. […]

[4] = system: nitric oxide at lung surface; assay: in vivo pulmonary NO with porphyrinic microsensor; set-up: species or system rat; details: during continued reperfusion; A23187 9.5 μM
Method: Measurements of nitric oxide concentrations in vivo were performed with a two electrode system using a porphyrinic sensor as a working electrode and a platinum wire as an auxiliary/reference electrode. The porphyrinic sensor with a flexible base was lowered onto the exposed surface of the lung using a micromanipulator. A small piezoelectric signal (mechanically generated current) was used to indicate that the sensor had made contact with the tissue surface. NO measurements were begun once the flexible sensor assumed an L-shaped configuration on the tissue surface and the platinum wire was connected to adjacent tissue. Continous amperometric (current-time) measurements were obtained at a constant potential of 0.68 V, during the period of warm ischemia (after the lung was sewn in place but not yet reperfused) and continously as the vascular cross-clamp was released and reperfusion initiated. Topical application of the calcium ionophore (A23187, 9.5 μM; Sigma) and superoxide dismutase (100 U/ml; Sigma) was applied as monitoring was continued.

[5] = system: cardiac graft vasculature; assay: perfusion of donor grafts by microspheres, nitric oxide series; assay type: in vivo, rat; details: 12 h preservation in LR
Method: Ten minutes after restoration of blood flow, 0.5 ml of 10 μm diameter microspheres (10^6 /ml) (E-Z Trac, Los Angeles, Calif.) was injected into the donor aortic root. Deposition of microspheres in ventricular tissue was assessed following alkaline hydrolysis, washing, and counting of microspheres as described^8, with results expressed as number of spheres per (40×) field per gram of ventricle. A minimum of ten fields were counted and the mean ±SEM is reported.

[6] = system: heart; details: in vivo; cited from earlier work
[7] = system: heart; assay: heterotopic rat cardiac transplant, nitric oxide series, graft survival/score; assay type: in vivo, rat (male Sprague-Dawley); details: 12 h in LR
From the text: Male Sprague-Dawley rats (350 grams, Camm Research, Wayne, N.J.) were used, and harvest, preservation, and transplantation procedures performed as described^8. Preservation solutions included lactated Ringer's (LR) solution (Baxter, Edison, N.J.), or LR supplemented with nitroglycerin (DuPont, Wilmington, Del.), sodium nitroprusside (Roche Laboratories, Nutley, N.J.), N^G -monomethyl-L-arginine (L-NMMA; Chembiochem, Salt Lake City, Utah), L-arginine (Sigma Chemical Co., St. Louis, Mo.), or 8-bromoguanosine3',5'monophosphate (8-Br-cGMP; Sigma). Components were combined within 4 hrs of donor cardiectomy, and preservation solutions were kept at 4° C. All of these solutions were at the pH of LR (6.6). University of Wisconsin solution (UW) was purchased from Dupont. […] Ten minutes after removal of the cross-clamp, an electrocardiogram was taken (Grass Polygraph, Quincy, Mass.) and the heart was judged by the same blinded investigators throughout based on the presence/absence of regular contractions and a transplant score (0-5, worst-best, respectively) employing the following criteria: contraction (poor=0, average=1, vigorous=2), tissue turgor (hard=0, average=1, soft=2), and color (dusky=0, pink=1).
Graft survival data was analyzed by contingency analysis (chi-square). Transplant scores, microsphere perfusion, myeloperoxidase, NO synthase, and platelet serotonin release data were analyzed using ANOVA for unpaired variables with the Tukey test used to discriminate significant differences between group means. Values are expressed as means ±SEM, with a p<0.05 considered statistically significant.

[8] = system: nitric oxide production in heart; assay: direct measurement of coronary vascular and endocardial NO with porphyrinic microsensor; set-up: species or system rat
Method: Direct measurement of coronary vascular and endocardial nitric oxide synthesis were made with a porphyrinic microsensor^13 using differential pulse voltammetry or amperometry. Rat hearts were explanted and preserved as described above, and studied fresh (no preservation/transplantation) or after hypothermic preservation in lactated Ringer's (LR) solution, heterotopic transplantation, and 10 minutes of reperfusion. The coronary vasculature was flushed free of blood with LR followed by 4 ml of LR supplemented with L-Arg (2 mM) and bradykinin ([…], Sigma), which was recycled (1 ml/min) through the coronary vasculature by flushing down the cross-clamped aortic root. Aliquots of perfusate were immediately transferred to an anaerobic environment for measurements and compared to an aqueous nitric oxide reference. Differential pulse voltammograms were obtained using a sensor (working electrode), saturated calomel electrode reference, and platinum wire-auxiliary electrode, with a pulse amplitude of 40 mV. Endocardial NO was measured by implanting the sensor in the septal endocardium of a freshly explanted or preserved/transplanted heart, and after the baseline stabilization, […] bradykinin was applied and NO release continuously monitored by amperometry at constant potential of 0.63 V.

For `Nc1ncnc2c1nc(Br)n2[C@@H]1O[C@@H]2COP(=O)(O)O[C@H]2[C@H]1O` [8-Br-cAMP, 8-bromoadenosine 3'5'monophosphate], the “fold less potent than cGMP in activating cGMP-dependent protein kinase” value [1] is given as 53 fold, the “concentration for optimal/maximal preservation” value [2] is given as 0.1 mM and the “effect on cardiac preservation” value [2] is given as “prolonged graft survival”. The graft survival ([2]; 8-Br-cAMP 0.1 mM) was 100%.

In the case of `Nc1nc2c(nc(Br)n2[C@@H]2O[C@H](CO)[C@@H](O)[C@H]2O)c(=O)[nH]1` [8-Br-guanosine], the “effect on lung preservation” value [3] is reported as “without effect”.

In the case of `Nc1nc2c(nc(Br)n2[C@@H]2O[C@H](COP(=O)(O)O)[C@@H](O)[C@H]2O)c(=O)[nH]1` [8-bromoguanosine 5'monophosphate], the “effect on lung preservation” value [3] is reported as “without effect”.

In the case of `CNc1ccc2oc(C[C@H]3O[C@@]4(CC[C@H]3C)O[C@H]([C@H](C)C(=O)c3ccc[nH]3)[C@H](C)C[C@H]4C)nc2c1C(=O)O` [A23187], the “effect on decline in NO” value [4] is reported as “did not alter the decline in NO”.

For `N=C(N)NCCC[C@H](N)C(=O)O` [L-Arg, L-arginine], the “graft blood flow” value [5] is given as “enhanced blood flow”, the “effect in cardiac ischemia models” value [6] is given as “improve vascular function and outcome” and the “effect on graft preservation (words)” value [7] is given as “enhanced preservation”. The “effect on graft preservation (words)” value ([7]; listed as L-arginine) was “enhanced graft survival”.

In the case of `CNC(=N)NCCC[C@H](N)C(=O)O` [L-NMMA, N^G -monomethyl-L-arginine], the “effect on NO levels” value ([8]; transplanted hearts) is reported as “blocked further NO production”, the “graft blood flow” value [5] is reported as “decreased blood flow” and the “effect on graft preservation (words)” value [7] is reported as “blocked the beneficial effects of L-Arg”. For the same compound, the graft survival ([7]; NTG 0.1 mg/ml where added) was 0% and the “effect on graft preservation (words)” value ([7]; listed as N^G -monomethyl-L-arginine) was “no survival of cardiac grafts; also recorded: poor preservation”.

With `N=C(NCCC[C@H](N)C(=O)O)N[N+](=O)[O-]` [N^ω -nitro-L-arginine] the “effect on graft preservation (words)” value [7] was “blocked the beneficial effects of L-Arg”.

For `N=c1c[n+](N2CCOCC2)[n-]o1` [SIN-1], the “effect in cardiac ischemia models” value [6] is listed as “improve vascular function and outcome”.

For `O=NO` [acidified sodium nitrite, sodium nitrite], the “effect in cardiac ischemia models” value [6] is given as “blunt myocardial injury and neutrophil accumulation during reperfusion; also recorded: improve vascular function and outcome”.

For `NC(N)=NCCC[C@H](NC(=O)[C@H](Cc1ccccc1)NC(=O)[C@@H]1CCCN1C(=O)[C@H](CO)NC(=O)[C@H](Cc1ccccc1)NC(=O)CNC(=O)[C@@H]1CCCN1C(=O)[C@@H]1CCCN1C(=O)[C@@H](N)CCCN=C(N)N)C(=O)O` [bradykinin] (H-RPPGFSPFR-OH), the “endocardial NO plateau following bradykinin challenge” value ([8]; freshly explanted heart) was 0.67 ± 0.06 µM and the “endocardial NO plateau following bradykinin challenge” value ([8]; preserved (38 hrs) heart) was 0.17 ± 0.05 µM.

For `CC1(C)C(=O)Nc2ccc(C3=NNC(=O)CC3)cc21` [indolidan], the “effect on cardiac preservation” value [2] was “uniformly enhanced preservation”.

In the case of `CCCC(=O)Nc1ncnc2c1ncn2[C@@H]1O[C@@H]2COP(=O)(O)O[C@H]2[C@H]1O` [mb-cAMP, N^6 -monobutyryladenosine 3'5'monophosphate], the “fold less potent than cGMP in activating cGMP-dependent protein kinase” value [1] is listed as 313 fold.
